The IC50 is the midpoint of a concentration-inhibition curve.

The target of the assay is T1, Chk1 (Homo sapiens, UniProt O14757).
T1 construct: purchased Upstate Biotechnology
T1 sequence (O14757 1-476): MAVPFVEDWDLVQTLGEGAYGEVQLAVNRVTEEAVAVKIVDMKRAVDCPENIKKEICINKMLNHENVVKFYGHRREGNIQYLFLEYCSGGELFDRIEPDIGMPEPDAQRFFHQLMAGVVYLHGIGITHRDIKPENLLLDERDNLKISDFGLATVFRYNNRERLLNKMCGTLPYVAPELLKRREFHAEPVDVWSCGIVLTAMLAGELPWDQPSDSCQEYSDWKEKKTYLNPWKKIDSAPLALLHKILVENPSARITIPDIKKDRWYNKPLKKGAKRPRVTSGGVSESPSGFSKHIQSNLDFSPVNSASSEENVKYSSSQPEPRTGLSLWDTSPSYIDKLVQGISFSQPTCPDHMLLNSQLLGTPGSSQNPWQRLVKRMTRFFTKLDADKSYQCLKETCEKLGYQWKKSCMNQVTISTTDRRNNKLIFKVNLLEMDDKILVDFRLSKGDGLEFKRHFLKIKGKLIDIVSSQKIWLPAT
The assay is described as follows: Chk1 kinase assay: incorporation of γ-33P ATP into immobilized myelin basic protein. In kind it is biochemical. Conditions: read-out: Chk1 IC50. Summed up: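 Radiometric filter-free format: Chk1 10 nM, 10 μM ATP; Chk2 20 nM, 30 μM ATP; γ-33P ATP tracer; immobilized MBP substrate; Hepes pH 7.6, 10 mM MgCl2, 1 mM DTT; 1 h RT; 1% DMSO. Scintillation counting of washed plates. IC50/Ki from curve fit.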
With `CNC(=O)c1nc(-c2cccc(C(=O)NCc3ccc(I)cc3)c2)cnc1N` [Example 302, 3-amino-6-[3-({[(4-iodophenyl)methyl]amino}carbonyl)phenyl]-N-methylpyrazine-2-carboxamide], the IC50 is less than 50 nM.
With `CNC(=O)c1nc(-c2cccc(C(=O)NCc3ccc(C)c(Cl)c3)c2)cnc1N` [Example 303, 3-amino-6-[3-({[(3-chloro-4-methylphenyl)methyl]amino}carbonyl)phenyl]-N-methylpyrazine-2-carboxamide] the figure was 50 to 1000 nM.
With `CNC(=O)c1nc(-c2cccc(C(=O)NCc3ccc(Br)cc3)c2)cnc1N` [Example 304, 3-amino-6-[3-({[(4-bromophenyl)methyl]amino}carbonyl)phenyl]-N-methylpyrazine-2-carboxamide] the figure was 50 to 1000 nM; with `CNC(=O)c1nc(-c2cccc(C(=O)NCc3ccccc3Br)c2)cnc1N` [Example 305, 3-amino-6-[3-({[(2-bromophenyl)methyl]amino}carbonyl)phenyl]-N-methylpyrazine-2-carboxamide], 50 to 1000 nM.
Consider `CNC(=O)c1nc(-c2cccc(CNC(=O)c3ccccc3)c2)cnc1N` [Example 308, 3-amino-N-methyl-6-(3-{[(phenylcarbonyl)amino]methyl}phenyl)pyrazine-2-carboxamide], for which the IC50 fell in the range of 50 to 1000 nM.
`CNC(=O)c1nc(-c2cccc(CNC(=O)c3ccc(Cl)cc3)c2)cnc1N` [Example 309, 3-amino-6-[3-({[(4-chlorophenyl)carbonyl]amino}methyl)phenyl]-N-methylpyrazine-2-carboxamide]: the IC50 was 50 to 1000 nM.
The result for `CNC(=O)c1nc(-c2cccc(CNC(=O)c3cc(F)ccc3F)c2)cnc1N` [Example 310, 3-amino-6-[3-({[(2,5-difluorophenyl)carbonyl]amino}methyl)phenyl]-N-methylpyrazine-2-carboxamide] reads 50 to 1000 nM.
For the molecule `CNC(=O)c1nc(-c2cccc(CNC(=O)c3ccc4ccccc4c3)c2)cnc1N` [Example 311, 3-amino-N-methyl-6-(3-{[(naphthalen-2-ylcarbonyl)amino]methyl}phenyl)pyrazine-2-carboxamide], the IC50 is 50 to 1000 nM.
The result for `CNC(=O)c1nc(-c2cccc(CSCc3ccccc3)c2)cnc1N` [Example 312, 3-amino-N-methyl-6-(3-{[(phenylmethyl)thio]methyl}phenyl)pyrazine-2-carboxamide] reads 50 to 1000 nM; that for `CNC(=O)c1nc(-c2cccc(CS(=O)(=O)Cc3ccccc3)c2)cnc1N` [Example 313, 3-amino-N-methyl-6-(3-{[(phenylmethyl)sulfonyl]methyl}phenyl)pyrazine-2-carboxamide], 50 to 1000 nM; that for `CNC(=O)c1nc(-c2cccc(COCc3ccccc3)c2)cnc1N` [Example 314, 3-amino-N-methyl-6-(3-{[(phenylmethyl)oxy]methyl}phenyl)pyrazine-2-carboxamide], 50 to 1000 nM.
The result for `CNC(=O)c1nc(-c2cccc(CNCc3ccccc3)c2)cnc1N` [Example 315, 3-amino-N-methyl-6-(3-{[(phenylmethyl)amino]methyl}phenyl)pyrazine-2-carboxamide] reads 50 to 1000 nM; that for `CNC(=O)c1nc(-c2cccc(C(=O)NCc3cc(F)c(F)c(F)c3)c2)cnc1N` [Example 316, 3-amino-N-methyl-6-[3-({[(3,4,5-trifluorophenyl)methyl]amino}carbonyl)phenyl]pyrazine-2-carboxamide], 50 to 1000 nM; that for `CNC(=O)c1nc(-c2cccc(NC(=O)OCC3c4ccccc4-c4ccccc43)c2)cnc1N` [Example 317, 9H-fluoren-9-ylmethyl (3-{5-amino-6-[(methylamino)carbonyl]pyrazin-2-yl}phenyl)carbamate], 1000 to 10000 nM.
With `CNC(=O)c1nc(-c2cccc(NC(=O)OCc3ccccc3)c2)cnc1N` [Example 318, phenylmethyl (3-{5-amino-6-[(methylamino)carbonyl]pyrazin-2-yl}phenyl)carbamate] the figure was 50 to 1000 nM; with `CCOC(=O)Nc1cccc(-c2cnc(N)c(C(=O)NC)n2)c1` [Example 319, ethyl (3-{5-amino-6-[(methylamino)carbonyl]pyrazin-2-yl}phenyl)carbamate], 50 to 1000 nM; with `CNC(=O)c1nc(-c2cccc(CNC(=O)c3ccc(Cl)c(Cl)c3)c2)cnc1N` [Example 320, 3-amino-6-[3-({[(3,4-dichlorophenyl)carbonyl]amino}methyl)phenyl]-N-methylpyrazine-2-carboxamide], 50 to 1000 nM.
For the molecule `CNC(=O)c1nc(-c2cccc(NC(=O)OC(C)(C)C)c2)cnc1N` [Example 321, 1,1-dimethylethyl (3-{5-amino-6-[(methylamino)carbonyl]pyrazin-2-yl}phenyl)carbamate], the IC50 was in the range of 1000 to 10000 nM.
The result for `CNC(=O)c1nc(-c2cccc(NC(=O)O[C@@H]3C[C@H](C)CC[C@H]3C(C)C)c2)cnc1N` [Example 322, (1R,2S,5R)-5-methyl-2-(1-methylethyl)cyclohexyl (3-{5-amino-6-[(methylamino)carbonyl]pyrazin-2-yl}phenyl)carbamate] reads not below 10000 nM; that for `CNC(=O)c1nc(-c2cccc(C(=O)NCc3ccc(O)cc3)c2)cnc1N` [Example 323, 3-amino-6-[3-({[(4-hydroxyphenyl)methyl]amino}carbonyl)phenyl]-N-methylpyrazine-2-carboxamide], 50 to 1000 nM; that for `CNC(=O)c1nc(-c2cccc(C(=O)NCc3ccc(OCCN4CCOCC4)cc3)c2)cnc1N` [Example 324, 3-amino-N-methyl-6-(3-{[({4-[(2-morpholin-4-ylethyl)oxy]phenyl}methyl)amino]carbonyl}phenyl)pyrazine-2-carboxamide], 50 to 1000 nM.
As for `CNC(=O)c1nc(-c2cccc(C(=O)NCc3ccccc3OC)c2)cnc1N` [Example 325, 3-amino-N-methyl-6-{3-[({[2-(methyloxy)phenyl]methyl}amino)carbonyl]phenyl}pyrazine-2-carboxamide], the IC50 is 50 to 1000 nM.
The result for `CNC(=O)c1nc(-c2cccc(C(=O)NCc3cccc(O)c3)c2)cnc1N` [Example 326, 3-amino-6-[3-({[(3-hydroxyphenyl)methyl]amino}carbonyl)phenyl]-N-methylpyrazine-2-carboxamide] reads 50 to 1000 nM; that for `CNC(=O)c1nc(-c2cccc(C(=O)NCc3ccccc3O)c2)cnc1N` [Example 327, 3-amino-6-[3-({[(2-hydroxyphenyl)methyl]amino}carbonyl)phenyl]-N-methylpyrazine-2-carboxamide], 50 to 1000 nM; that for `CNC(=O)c1nc(-c2cccc(C(=O)NNc3ccccc3)c2)cnc1N` [Example 328, 3-amino-N-methyl-6-{3-[(2-phenylhydrazino)carbonyl]phenyl}pyrazine-2-carboxamide], less than 50 nM.
The result for `CNC(=O)c1nc(-c2cccc(CNC(=O)Cc3ccccc3)c2)cnc1N` [Example 330, 3-amino-N-methyl-6-(3-{[(phenylacetyl)amino]methyl}phenyl)pyrazine-2-carboxamide] reads 50 to 1000 nM.
With `CNC(=O)c1nc(-c2cccc(CNC(=O)Cc3ccc(Cl)cc3)c2)cnc1N` [Example 331, 3-amino-6-[3-({[(4-chlorophenyl)acetyl]amino}methyl)phenyl]-N-methylpyrazine-2-carboxamide] the figure was 50 to 1000 nM.
As for `CNC(=O)c1nc(-c2cccc(CNC(=O)c3ccc(-c4ccccc4)cc3)c2)cnc1N` [Example 332, 3-amino-6-(3-{[(biphenyl-4-ylcarbonyl)amino]methyl}phenyl)-N-methylpyrazine-2-carboxamide], the IC50 was less than 50 nM.
With `CNC(=O)c1nc(-c2cccc(CNC(=O)c3cc(C(F)(F)F)ccc3Cl)c2)cnc1N` [Example 333, 3-amino-6-{3-[({[2-chloro-5-(trifluoromethyl)phenyl]carbonyl}amino)methyl]phenyl}-N-methylpyrazine-2-carboxamide] the figure was 50 to 1000 nM; with `CNC(=O)c1nc(-c2cccc(CNC(=O)c3cc4ccccc4[nH]3)c2)cnc1N` [Example 334, N-[(3-{5-amino-6-[(methylamino)carbonyl]pyrazin-2-yl}phenyl)methyl]-1H-indole-2-carboxamide], 50 to 1000 nM.
With `CNC(=O)c1nc(-c2cccc(CNC(=O)c3ncccc3O)c2)cnc1N` [Example 335, 3-amino-6-[3-({[(3-hydroxypyridin-2-yl)carbonyl]amino}methyl)phenyl]-N-methylpyrazine-2-carboxamide] the figure was 50 to 1000 nM; with `CNC(=O)c1nc(-c2cccc(CNC(=O)Cc3c[nH]c4ccccc34)c2)cnc1N` [Example 336, 3-amino-6-(3-{[(1H-indol-3-ylacetyl)amino]methyl}phenyl)-N-methylpyrazine-2-carboxamide], 50 to 1000 nM; with `CNC(=O)c1nc(-c2cccc(C(=O)NCc3cc(F)ccc3F)c2)cnc1N` [Example 337, 3-amino-6-[3-({[(2,5-difluorophenyl)methyl]amino}carbonyl)phenyl]-N-methylpyrazine-2-carboxamide], 50 to 1000 nM.
The result for `CNC(=O)c1nc(-c2cccc(C(=O)NCc3c(F)cccc3F)c2)cnc1N` [Example 338, 3-amino-6-[3-({[(2,6-difluorophenyl)methyl]amino}carbonyl)phenyl]-N-methylpyrazine-2-carboxamide] reads 50 to 1000 nM.

Source of the values: patent US7704995B2 (Exelixis, Inc., priority 2003, dated 2010).
